22 compounds from patent US20250353828A1, “SUBSTITUTED BIARYL ENDOCHIN-LIKE QUINOLONES WITH ENHANCED ANTIPARASITIC ACTIVITY” (Oregon Health & Science University, priority 2022, published 2025) can be followed below.

Structures are written as SMILES. Like-named read-outs stand apart in the source and are kept apart here.

Assay [1] has as its system P. falciparum Tm90-C2B (atovaquone-resistant clinical isolate). Put plainly: In vitro antiplasmodial activity, SYBR Green I assay, Tm90-C2B. Type of assay: cell-based. The following applies: Plasmodium falciparum, read-out: P. falciparum IC50 values, nM Tm90-C2B. Here is the method:
(§1) Rationale for Synthesis of a 3-Biaryl Version of ELQ-300. […] All of this information is stored in a database with information relating to chemical structure, physical chemical properties, cross resistance patterns, mammalian cell cytotoxicity, enzyme inhibitor profiles, and synthesis details. […] We employed the SyBr Green assay and the plates were incubated for 72 hours before harvesting^18, 19. […] Stock solutions were freshly prepared in DMSO.
(§2) Plasmodium falciparum Culture. Laboratory strains of P. falciparum were cultured in human erythrocytes by standard methods. The parasites were grown in culture medium with fresh human erythrocytes maintained at 2% hematocrit at 37° C. in low-oxygen conditions (5% O2, 5% CO2, […] balance N2). […] Cultures were maintained at less than 10% parasitemia by transfer of infected cells to fresh erythrocytes and culture medium every 3 or 4 days.
(§3) In vitro drug susceptibility assays. SYBR green I assay. In vitro antiplasmodial activity was assessed using a published SYBR Green I fluorescence-based method. The drugs were added to 96-well plates using 2-fold serial dilutions in complete medium. […] Asynchronous P. falciparum parasites were diluted with uninfected erythrocytes and added to the wells to give a final culture volume of 100 μl at 2% hematocrit and 0.2% parasitemia. […] The parasites were then lysed by adding 100 μl of SYBR green I lysis buffer containing 0.2 μl/ml SYBR green I dye (10,000×) in 20 mM Tris (pH 7.5), 5 mM EDTA, 0.008% (wt/vol) saponin, and 0.08% (vol/vol) Triton X-100. The plates were incubated at room temperature for an hour in the dark. […] If the IC50 value fell outside of the initial tested range then the range was adjusted up or down and the assay was repeated.

For assay [2], the system named is P. falciparum D6 strain (drug sensitive). Put plainly: In vitro antiplasmodial activity, SYBR Green I assay, D6 strain. In kind it is cell-based, Plasmodium falciparum. The following applies: Plasmodium falciparum, read-out: P. falciparum IC50 values, nM D6. As for the experimental part: as §1, §2, §3
In assay [3] the test system is P. falciparum D1 clone (ELQ-300 resistant). Put plainly: microbe, parasite or virus in culture. Type of assay: cell-based. The following applies: Plasmodium falciparum, 72 h, read-out: P. falciparum IC50 values, nM D1.
Assay [4] concerns P. falciparum Dd2 strain (multidrug resistant). Put plainly: microbe, parasite or virus in culture. In kind it is cell-based, Plasmodium falciparum. The following applies: Plasmodium falciparum, DD2, 72 h, read-out: P. falciparum IC50 values, nM Dd2. Here is the method:
as §1, §2, §3

The mark [5] stands for this setting: Tm90-C2B strain, 72 h incubation, averages of quadruplicate with (95% confidence intervals).
[6] abbreviates: D6 strain, 72 h incubation, averages of quadruplicate with (95% confidence intervals).

Broadly, the IC50 is the concentration at which inhibition is half-maximal. On to `Cc1[nH]c2cc(F)cc(F)c2c(=O)c1-c1ccc(-c2ccc(OC(F)(F)F)cc2)cc1` [ELQ-601, 5,7-difluoro-2-methyl-3-(4′-(trifluoromethoxy)-[1,1′-biphenyl]-4-yl)quinolin-4(1H)-one], for which, in assay [1] (setting [5]), the IC50 came out at 24.5 nM.
As to `COc1cc2[nH]c(C)c(-c3ccc(-c4cccc(OC(F)(F)F)c4)cc3)c(=O)c2cc1Cl` [ELQ-604, 6-chloro-7-methoxy-2-methyl-3-(3′-(trifluoromethoxy)-[1,1′-biphenyl]-4-yl)quinolin-4(1H)-one], the IC50 in assay [1] (setting [5]) was 0.5 nM; in assay [2] (setting [6]), 0.6 nM.
For `COc1cc2[nH]c(C)c(-c3ccc(-c4ccc(C#N)cc4)cc3)c(=O)c2cc1Cl` [ELQ-602, 4′-(6-chloro-7-methoxy-2-methyl-4-oxo-1,4-dihydroquinolin-3-yl)-[1,1′-biphenyl]-4-carbonitrile], in that order: 10.9 nM and 4.8 nM.
With `COc1cc2[nH]c(C)c(-c3ccc(-c4ccc(C)cc4)cc3)c(=O)c2cc1Cl` [ELQ-603, 6-chloro-7-methoxy-2-methyl-3-(4′-methyl-[1,1′-biphenyl]-4-yl)quinolin-4(1H)-one], the figures for the IC50 in assay [1] (setting [5]) and in assay [2] (setting [6]) were 1.5 nM and 1 nM, respectively.
Turning to `COc1ccc2c(=O)c(-c3ccc(-c4cc(F)c(OC(F)(F)F)c(F)c4)cc3)c(C)[nH]c2c1` [ELQ-733, 3-(3′,5′-difluoro-4′-(trifluoromethoxy)-[1,1′-biphenyl]-4-yl)-7-methoxy-2-methylquinolin-4(1H)-one], the IC50 worked out at 2.94 nM in assay [1] (setting [5]), 6.18 nM in assay [3], 7.9 nM in assay [4] and 7.45 nM in assay [2] (setting [6]).
Take `COc1cc2[nH]c(C)c(-c3ccc(-c4ccc(Cl)cc4)cc3)c(=O)c2cc1Cl` [ELQ-637, 6-chloro-3-(4′-chloro-[1,1′-biphenyl]-4-yl)-7-methoxy-2-methylquinolin-4(1H)-one]: the IC50 in assay [1] (setting [5]) turned out to be 3 nM; in assay [2] (setting [6]) it was 3.4 nM.
`COc1cc2[nH]c(C)c(-c3ccc(-c4ccc(Oc5ccc(OC(F)(F)F)cc5)cc4)cc3)c(=O)c2cc1Cl` [ELQ-653]: the IC50 in assay [1] (setting [5]) was determined as 0.88 nM; in assay [2] (setting [6]) it was 1.5 nM.
As to `COc1cc2[nH]c(C)c(-c3ccc(-c4ccc(OC(F)(F)F)cc4)cc3)c(=O)c2cc1F` [ELQ-650, 6-fluoro-7-methoxy-2-methyl-3-(4′-(trifluoromethoxy)-[1,1′-biphenyl]-4-yl)quinolin-4(1H)-one], the half-inhibitory concentration (IC50) in assay [1] (setting [5]) was determined as 0.4 nM; in assay [2] (setting [6]) it was 0.8 nM.
In the case of `COc1ccc2c(=O)c(-c3ccc(-c4cccc(C(F)(F)F)c4)cc3)c(C)[nH]c2c1` [ELQ-730, 7-Methoxy-2-methyl-3-(3′-(trifluoromethyl)-[1,1′-biphenyl]-4-yl)quinolin-4(1H)-one], the IC50 came out at 4.05 nM in assay [1] (setting [5]), 3.82 nM in assay [3], 5.33 nM in assay [4] and 5.02 nM in assay [2] (setting [6]).
As for `COc1ccc2c(=O)c(-c3ccc(-c4ccc(F)cc4OC)cc3)c(C)[nH]c2c1` [ELQ-756, 3-(4′-Fluoro-2′-methoxy-[1,1′-biphenyl]-4-yl)-7-methoxy-2-methylquinolin-4(1H)-one], the IC50 came out at 3.22 nM in assay [1] (setting [5]), 2.06 nM in assay [3], 4.46 nM in assay [4] and 3.27 nM in assay [2] (setting [6]).
Consider `Cc1[nH]c2ccccc2c(=O)c1-c1ccc(-c2ccc(OC(F)(F)F)cc2)cc1` [ELQ-649, 2-methyl-3-(4′-(trifluoromethoxy)-[1,1′-biphenyl]-4-yl)quinolin-4(1H)-one], for which the IC50 in assay [1] (setting [5]) amounted to 6 nM; in assay [2] (setting [6]), 7.9 nM.
Turning to `COc1cc2[nH]c(C)c(-c3ccc(-c4ccc(C(F)F)cc4)cc3)c(=O)c2cc1Cl` [ELQ-659, 6-chloro-3-(4′-(difluoromethyl)-[1,1′-biphenyl]-4-yl)-7-methoxy-2-methylquinolin-4(1H)-one], the IC50 in assay [1] (setting [5]) turned out to be 0.57 nM; in assay [2] (setting [6]), 1.8 nM.
`COc1cc2[nH]c(C)c(-c3ccc(-c4ccc(C(C)(C)C)cc4)cc3)c(=O)c2cc1Cl` [ELQ-651, 3-(4′-(tert-butyl)-[1,1′-biphenyl]-4-yl)-6-chloro-7-methoxy-2-methylquinolin-4(1H)-one]: the half-maximal inhibitory concentration (IC50) is 0.49 nM in assay [1] (setting [5]) and 1.1 nM in assay [2] (setting [6]).
For `COc1ccc2c(=O)c(-c3ccc(-c4cc(C(F)(F)F)cc(C(F)(F)F)c4)cc3)c(C)[nH]c2c1` [ELQ-731, 3-(3′,5′-bis(trifluoromethyl)-[1,1′-biphenyl]-4-yl)-7-methoxy-2-methylquinolin-4(1H)-one], the IC50 is 2.05 nM in assay [1] (setting [5]), 5.56 nM in assay [3], 4.73 nM in assay [4] and 3.93 nM in assay [2] (setting [6]).
For the compound `COc1ccc2c(=O)c(-c3ccc(-c4ccc(C(F)(F)F)cc4OC)cc3)c(C)[nH]c2c1` [ELQ-757], the IC50 in assay [1] (TM90, 72 h) came to 3 nM; in assay [3] it was 1.91 nM; in assay [4] it was 4.85 nM; in assay [2] (D6, 72 h), 3.08 nM.
In the case of `COc1ccc(-c2ccc(-c3c(C)[nH]c4cc(OC)c(Cl)cc4c3=O)cc2)cc1` [ELQ-645, 6-chloro-7-methoxy-3-(4′-methoxy-[1,1′-biphenyl]-4-yl)-2-methylquinolin-4(1H)-one], the concentration for half-maximal inhibition (IC50) in assay [1] (setting [5]) came out at 6 nM; in assay [2] (setting [6]), 5 nM.
For `COc1ccc2c(=O)c(-c3ccc(-c4cc(F)c(OC)c(F)c4)cc3)c(C)[nH]c2c1` [ELQ-734, 3-(3′,5′-difluoro-4′-methoxy-[1,1′-biphenyl]-4-yl)-7-methoxy-2-methylquinolin-4(1H)-one], the IC50 in assay [1] (setting [5]) worked out at 6.4 nM; in assay [3], 11.6 nM; in assay [4], 16.3 nM; in assay [2] (setting [6]), 10.9 nM.
Turning to `COc1cc2[nH]c(C)c(-c3ccc(-c4cccc(C(F)(F)F)c4)cc3)c(=O)c2cc1Cl` [ELQ-646, 6-chloro-7-methoxy-2-methyl-3-(3′-(trifluoromethyl)-[1,1′-biphenyl]-4-yl)quinolin-4(1H)-one], the values for the IC50 in assay [1] (setting [5]) and in assay [2] (setting [6]) were 1 nM and 1.1 nM, respectively.
For `COc1ccc2c(=O)c(-c3ccc(-c4cccc(OC(F)(F)F)c4)cc3)c(C)[nH]c2c1` [ELQ-732, 7-methoxy-2-methyl-3-(3′-(trifluoromethoxy)-[1,1′-biphenyl]-4-yl)quinolin-4(1H)-one], the IC50 in assay [1] (setting [5]) amounted to 14.4 nM; in assay [3] it was 10.6 nM; in assay [4], 16.3 nM; in assay [2] (setting [6]), 15.9 nM.
Turning to `COc1cc2[nH]c(C)c(-c3ccc(-c4ccc(C(F)(F)F)cc4)cc3)c(=O)c2cc1Cl` [ELQ-647, 6-chloro-7-methoxy-2-methyl-3-(4′-(trifluoromethyl)-[1,1′-biphenyl]-4-yl)quinolin-4(1H)-one], the IC50 in assay [1] (setting [5]) and in assay [2] (setting [6]) was 3.5 nM each time.
With `Cc1[nH]c2c(c(=O)c1-c1ccc(-c3ccc(OC(F)(F)F)cc3)cc1)CCCC2` [ELQ-660], the IC50 in assay [1] (setting [5]) stood at 7.9 nM; in assay [2] (setting [6]) it was 15.6 nM.
For `COc1cc2[nH]c(C)c(-c3ccc(-c4ccc(OC(F)F)cc4)cc3)c(=O)c2cc1Cl` [ELQ-600, 6-chloro-3-(4′-(difluoromethoxy)-[1,1′-biphenyl]-4-yl)-7-methoxy-2-methylquinolin-4(1H)-one], in that order: 5.9 nM and 3.9 nM.
